The values below come from patent US10468722B2, “Organic synthesis applications of non-aqueous fluoride salt solutions” (CALIFORNIA INSTITUTE OF TECHNOLOGY, priority 2015, dated 2019).

Series [1] can be described thus: NpMe3NF stability in various solvents by 1H and 19F NMR. The class given is physicochemical. The protocol:
NpMe3NF stability in various solvents is analyzed by ^1H and ^19F NMR measurements. Preliminary criteria used for a solvent being “chemically stable” to the F^− ion are observation of a clear, sharp peak in the ^19F spectrum, alongside a 1:1:1 triplet arising from the DF2^− formation from the deuterated acetonitrile solvent (CD3CN).

Another series in a line: physchem. The note with it: for Solubility in fluorinated solvents (in words): 3-fluorobenzonitrile and BTFE, useful concentrations e.g. >0.05 M; for Solubility vs. TMAF: in 3-fluorobenzonitrile, relative to TMAF; for solubility: organic solvent or mixture. As for the experimental part: NpMe3NF is determined to be soluble in a given solvent if the concentration of NpMe3NF dissolved within the solvent is greater than 0.05 M.

Setting [2] is: in 2,6-difluoropyridine (2,6-F2Py).
The mark [3] stands for this setting: in 3-methoxypropionitrile (3-MeOPN).

As for `CC(C)(C)C[N+](C)(C)C.[F-]` [NpMe3NF, (2,2-dimethylpropyl)trimethylammonium fluoride], the “Stability (1H and 19F NMR)” value in series [1] (setting [2]) is listed as “good stability”; in series [1] (setting [3]) it was “poor stability”; in series [1] (in BTFE) it was “good stability”; in series [1] (in Bis(2,2,2-trifluoroethyl) carbonate (BTFEC)) it was “poor stability”; in series [1] (in propionitrile (PN)) it was “good stability”. In the series “physchem”, the “Solubility in fluorinated solvents (in words)” value is listed as “significantly higher solubility”. The “Approximate Solubility” value in “physchem” (in 1,3-Dimethyl-3,4,5,6-tetrahydro-2(1H)-pyrimidinone (DMPU)) came to 0.11 mol/L; in “physchem” (in 2,2,2-trifluoroethyl trifluoroacetate (TFE-TFA)), 0.95 mol/L; in “physchem” (in 2,3-difluorobenzonitrile (2,3-F2BN)), 0.40 mol/L; in the series “physchem” (setting [2]), 0.39 mol/L; in the series “physchem” (in 2-fluorobenzonitrile (2-FBN)), 0.12 mol/L; in the series “physchem” (in 3-fluorobenzonitrile (3-FBN)), 0.19 mol/L. Further, the “Approximate Solubility” value in the series “physchem” (setting [3]) was determined as 0.78 mol/L; in the series “physchem” (in (Dimethylamino)acetonitrile (DMAN)), 0.14 mol/L; in the series “physchem” (in Fluoroethylene carbonate (FEC)) it was 0.71 mol/L; in “physchem” (in Tris(2,2,2-trifluoroethyl)phosphite (TTFP)) it was 1.05 mol/L; in “physchem” (in methoxyacetonitrile (MeOAN)), 0.80 mol/L; in the series “physchem” (in phenyl trifluoroacetate (PhTFA)), 0.47 mol/L. For the same compound, the “Approximate Solubility” value in “physchem” (in propionitrile (PN)) worked out at 0.07 mol/L. The “Solubility vs. TMAF” value in the series “physchem” is over 6x. The solubility in “physchem” amounted to 190 mM.

For the compound `CC(C)(C)C[N+](C)(C)CC(C)(C)C.[F-]` [Np2Me2NF, bis(2,2-dimethylpropyl)dimethylammonium fluoride], in “physchem”, the “Solubility in fluorinated solvents (in words)” value is “significantly higher solubility”, the “Solubility vs. TMAF” value is listed as over 10x and the solubility worked out at 340 mM.
